# From patent US20200155607A1, “Enriched Cellular Compositions and Therapeutic Use” (Abraham J and Phyllis Katz Cord Blood Foundation, priority 2017, published 2020)
# Tested on: human dermal fibroblast
# Assay: Fibroblast proliferation by MTT assay
# Format: cell-based
# Conditions: mitomycin c 10 or 25 μg/ml for 30 or 60 min; MTT at 17 hrs
# Procedure: The results from two different studies investigating the effect of mitomycin c on human dermal fibroblast proliferation are shown in FIGS. 5A-5B. Fibroblast cells were plated out in complete media and then treated with mitomycin c (10 μg/ml or 25 μg/ml) for 30 or 60 min. Mitomcyin c was washed out and starvation media was added. Positive controls are 10% FBS and FGF (25 ng/ml). The ODs from the blank wells were subtracted out. Proliferation was measured by MTT assay at 17 hrs.
compound,measurement,value
"CO[C@@]12[C@H](COC(N)=O)C3=C(C(=O)C(C)=C(N)C3=O)N1C[C@@H]1N[C@@H]12 [Mitomycin c, mitomycin c]",fibroblast proliferation (MTT),appears to inhibit fibroblast proliferation
